Source: ChEMBL document CHEMBL1201862, “PubChem BioAssay data set” (2004)
Where “and” joins values, the source holds several entries; their conditions need not be identical. Equal values may be shown once. Calls of active or inactive are those of the source.

Tests used:
[1] = target: Beta Lactamase (Pseudomonas aeruginosa, UniProt Q932Y6); assay: BLA reporter interference, concentration series – BLA reporter cells, FRET fluorescence, artefact control for TLR9-MyD88 binding inhibitor project, dose response (AID 588341); assay type: cell-based;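 note: cell based assay in CHO-K1 cells stably expressing beta-lactamase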
[2] = system: HEK293; assay: EBV LMP1 TES2 canonical NF-kB signalling blockers – cell-based, HEK293, luciferase, cherry-pick, dose response (AID 588343); assay type: functional; conditions: Homo sapiens
[3] = target: T1, Polyadenylate-binding protein 1 (Homo sapiens, UniProt P11940); assay: MLLE domain peptide-binding blockers, IC50 – biochemical, fluorescence polarization, FITC-PAM2 peptide, dose response (AID 602259); assay type: functional; conditions: read-out: IC50_Mean
[4] = system: Vero; assay: viability of Vero cells under compound – cytotoxicity control for flavivirus capping enzyme inhibitors (AID 588742); assay type: functional; conditions: Chlorocebus sabaeus
[5] = system: CHO; assay: CHO cell viability loss, potency – luminescence, cytotoxicity control for TLR9-MyD88 binding inhibitor project, dose response (AID 588339); assay type: functional, cell-based, hamster; conditions: Cricetulus griseus;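 note: CHO cells stably coexpressing TLR9 and MyD88 fusions from primary screen; compound exposure lasted 48 hours before viability readout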
[6] = target: T1, Polyadenylate-binding protein 1; assay: MLLE binding blockers, Cy5 peptide tracer – biochemical, fluorescence polarization, Cy5-PAM2 peptide, secondary, miRNA deadenylation inhibitor project, dose response (AID 602260); assay type: functional; conditions: read-out: IC50_Mean
[7] = general cell-killing toxicity readout – plate reader, dry powder samples, cytotoxicity control for PAX8 inhibitor project, dose response (AID 743021); assay type: functional, cell-based
[8] = target: Genome polyprotein (dengue virus type 2, UniProt P29990); assay: flavivirus cap methylation enzyme inhibition – biochemical, confirmation dose response, primary screen (AID 588689); assay type: functional
[9] = target: Paired box protein Pax-8 (Homo sapiens, UniProt Q06710); assay: PAX8 transcriptional activity inhibition in RMG-I – RMG-I cells, luciferase, cherry-pick, dose response (AID 687027); assay type: functional, cell-based;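 note: luciferase reporter driven by Pax8 target thyroperoxidase promoter measured by SteadyGlo luminescence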
[10] = HGIII-sPLA2 enzyme inhibition potency – biochemical, QFRET, IC50, dose response (AID 743457);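 note: green fluorescence rise as the enzyme cleaves BODIPY PC-A2 in liposomes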
[11] = Luminescence Cell-Based Dose Response HTS to Identify Activators of Luciferase Translation or Activity in H4 […] Cells. [Related pubchem assays: 1829 (Project Summary), 1814 (Primary HTS)]; assay type: functional
[12] = cells; assay type: functional, cell-based
[13] = system: H4; assay: Luminescence Cell-Based Dose Response HTS to Identify Activators of 5'UTR Stem-Loop Driven Prion Protein mRNA Translation in H4 Neuroglioblastoma Cells. [Related pubchem assays: 1829 (Project Summary), 1814 (Primary HTS)]; assay type: functional; conditions: Homo sapiens
[14] = Luminescence Cell-Based Dose Confirmation HTS to Identify Activators of 5'UTR Stem-Loop Driven Alpha-Synuclein mRNA Translation in H4 Neuroglioblastoma Cells. [Related pubchem assays: 1829 (Project Summary), 1814 (Primary HTS)]; assay type: functional
[15] = cells; assay type: functional, cell-based; remark: listed apart in the source
[16] = target: Cytochrome P450 2D6 (Homo sapiens, UniProt P10635);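 note: CYP2D6 member of a cytochrome P450 panel assay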
[17] = acridine orange displacement from DNA – biochemical, fluorescence polarization, cherry-pick, artefact control for RAD54 inhibitor project, dose response (AID 651673); assay type: functional
[18] = target: Cytochrome P450 2C19 (Homo sapiens, UniProt P33261); assay: Cytochrome panel assay with activity outcomes. Panel member name: p450-cyp2c19 Compounds with AC50 equal or less than 10 uM are considered active; assay type: functional; conditions: read-out: AC50
[19] = target: T2, DNA repair and recombination protein RAD54-like (Homo sapiens, UniProt Q92698); assay: RAD54 Holliday junction migration blockers – biochemical, fluorescence, cherry-picked samples, dose series, confirmation (AID 651657); assay type: functional
T2 sequence (Q92698 whole entry): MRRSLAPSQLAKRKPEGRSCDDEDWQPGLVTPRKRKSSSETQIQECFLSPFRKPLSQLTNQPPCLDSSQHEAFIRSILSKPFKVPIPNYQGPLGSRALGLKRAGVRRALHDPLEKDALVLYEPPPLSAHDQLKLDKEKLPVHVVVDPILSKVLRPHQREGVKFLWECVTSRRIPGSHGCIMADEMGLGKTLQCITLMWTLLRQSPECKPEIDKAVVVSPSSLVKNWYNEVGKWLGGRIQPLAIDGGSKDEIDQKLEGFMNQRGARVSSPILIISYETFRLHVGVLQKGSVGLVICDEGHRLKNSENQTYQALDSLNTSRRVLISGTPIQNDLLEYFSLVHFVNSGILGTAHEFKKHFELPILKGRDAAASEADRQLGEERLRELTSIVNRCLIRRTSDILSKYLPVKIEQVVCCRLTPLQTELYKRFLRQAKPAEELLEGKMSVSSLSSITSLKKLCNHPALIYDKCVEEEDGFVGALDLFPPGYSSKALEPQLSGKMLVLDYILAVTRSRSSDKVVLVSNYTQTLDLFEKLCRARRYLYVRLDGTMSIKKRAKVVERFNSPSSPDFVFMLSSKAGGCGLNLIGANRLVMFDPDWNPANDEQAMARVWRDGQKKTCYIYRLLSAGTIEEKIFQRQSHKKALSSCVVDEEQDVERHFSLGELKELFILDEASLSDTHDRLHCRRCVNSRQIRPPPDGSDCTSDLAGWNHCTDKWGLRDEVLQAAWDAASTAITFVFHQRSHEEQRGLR

[20] = target: Fructose-bisphosphate aldolase (Mycobacterium tuberculosis, UniProt P9WQA3); assay: Fluorescence-based biochemical high throughput dose response assay for inhibitors of the fructose-bisphosphate aldolase (FBA) of M. tuberculosis.; assay type: functional
[21] = target: Albumin (Bos taurus, UniProt P02769); assay: Counterscreen for inhibitors of T-cell receptor (TCR)-CD3 interaction: Fluorescence-based biochemical high throughput dose response assay to identify inhibitors of T-cell receptor (TCR)-CD3 interaction using a TAMRA-labeled BSA probe.; assay type: functional
[22] = system: HeLa; assay: viability loss in HeLa cells – cell-based, ATP luminescence, cherry-pick samples, cytotoxicity control, dose response (AID 687004); assay type: functional; conditions: Homo sapiens
[23] = target: T3, Ubiquitin-conjugating enzyme E2 N (Homo sapiens, UniProt P61088); assay type: functional;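 note: Dose-response confirmation in a TR-FRET assay detecting UBC13-driven polyubiquitin chain formation, inhibition measured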
T3 sequence (P61088 whole entry): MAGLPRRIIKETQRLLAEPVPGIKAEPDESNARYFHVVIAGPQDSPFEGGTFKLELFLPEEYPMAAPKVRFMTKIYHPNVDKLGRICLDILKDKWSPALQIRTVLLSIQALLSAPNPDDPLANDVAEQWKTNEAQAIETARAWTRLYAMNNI

[24] = target: DNA repair protein RAD52 homolog (Homo sapiens, UniProt P43351); assay type: functional, biochemical
[25] = target: T4, Beta-lactamase (Pseudomonas aeruginosa, UniProt Q79MP6); assay: inhibition of IMP-1 beta-lactamase activity – biochemical, epi-absorbance, selectivity assay for VIM-2 inhibitor project, dose response (AID 1920)
[26] = target: T4, Beta-lactamase; assay: […] counterscreen for selective VIM-2 inhibitors: dose response biochemical high throughput screening assay to identify inhibitors of IMP-1 metallo-beta-lactamase.
[27] = target: Beta-lactamase (Salmonella choleraesuis (strain SC-B67), UniProt Q5J463); assay: Epi-absorbance-based counterscreen for selective VIM-2 inhibitors: dose response biochemical high throughput screening assay to identify inhibitors of TEM-1 serine-beta-lactamase.
[28] = target: Nuclear receptor subfamily 5 group A member 2 (Homo sapiens, UniProt O00482); assay type: functional, cell-based;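 note: HEK293T cells transfected with LRH-1 and a StAR promoter luciferase reporter; potency for inhibitors that lower LRH-1 driven reporter light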
[29] = nonselective StAR promoter luciferase inhibitors – cell-based, luminescence, luciferase reporter, counter-screen for LRH-1 inverse agonist project, dose response (AID 651969); assay type: functional
[30] = target: Steroidogenic factor 1 (Homo sapiens, UniProt Q13285); assay: Counterscreen for inverse agonists of the liver receptor homolog-1 (LRH-1; NR5A2): Luminescence-based cell-based high throughput dose response assay to identify inverse agonists of the Steroidogenic Factor 1 Nuclear Receptor (SF1; NR5A1).; assay type: functional
[31] = Counterscreen for […] of the human trace amine associated receptor 1 (TAAR1): Fluorescence-based cell-based high throughput dose response assay to identify nonselective Ga16 agonists.; assay type: functional
[32] = Counterscreen for antagonists of the human trace amine associated receptor 1 (hTAAR1): Fluorescence-based cell-based high throughput dose response assay to identify nonselective Ga16 antagonists.; assay type: functional
[33] = target: Matrix metalloproteinase-14 (Homo sapiens, UniProt P50281); assay: Dose Response confirmation of uHTS hits for a small molecule inhibitors of MT1-MMP activation in a fluorescence assay set 2.; assay type: functional
[34] = target: Induced myeloid leukemia cell differentiation protein Mcl-1 (Homo sapiens, UniProt Q07820); assay type: functional
[35] = system: Cryptococcus neoformans; assay: Cryptococcus growth inhibition by alamar blue – cell lysis, cherry-picks, replicate tests, mechanism study for C. neoformans antifungal project, dose response (AID 686999); assay type: functional, organism-based
[36] = system: Cryptococcus neoformans; assay: PubChem AID 686997; assay type: functional, organism-based
[37] = cytotoxicity in HEK293 background cells – cell-based, dry powder, set 2, counter-screen for EBV LMP1 inhibitor project, dose response (AID 624374); assay type: functional
[38] = viability loss in LCL cells – cell-based, plate reader, dry powder, set 2, cytotoxicity control, dose response (AID 624367); assay type: functional
[39] = target: T5, Sentrin-specific protease 1 (Homo sapiens, UniProt Q9P0U3); assay: Dose response confirmation of small molecule inhibitors of the catalytic domain of the SUMO protease, SENP1 in a FRET assay.; assay type: functional; conditions: read-out: IC50_Mean
[40] = target: T5, Sentrin-specific protease 1; assay: SENP1 catalytic domain blockers, concentration series – biochemical, kinetic FRET, dose response (AID 651697); assay type: functional; conditions: read-out: IC50_Mean
[41] = inhibitors of EBV LMP1 NF-kappaB signaling – cell-based, luciferase reporter, luminescence, dry powder, set 2, dose response (AID 624376); assay type: functional

T1 sequence (P11940 whole entry, the tested form may be a part): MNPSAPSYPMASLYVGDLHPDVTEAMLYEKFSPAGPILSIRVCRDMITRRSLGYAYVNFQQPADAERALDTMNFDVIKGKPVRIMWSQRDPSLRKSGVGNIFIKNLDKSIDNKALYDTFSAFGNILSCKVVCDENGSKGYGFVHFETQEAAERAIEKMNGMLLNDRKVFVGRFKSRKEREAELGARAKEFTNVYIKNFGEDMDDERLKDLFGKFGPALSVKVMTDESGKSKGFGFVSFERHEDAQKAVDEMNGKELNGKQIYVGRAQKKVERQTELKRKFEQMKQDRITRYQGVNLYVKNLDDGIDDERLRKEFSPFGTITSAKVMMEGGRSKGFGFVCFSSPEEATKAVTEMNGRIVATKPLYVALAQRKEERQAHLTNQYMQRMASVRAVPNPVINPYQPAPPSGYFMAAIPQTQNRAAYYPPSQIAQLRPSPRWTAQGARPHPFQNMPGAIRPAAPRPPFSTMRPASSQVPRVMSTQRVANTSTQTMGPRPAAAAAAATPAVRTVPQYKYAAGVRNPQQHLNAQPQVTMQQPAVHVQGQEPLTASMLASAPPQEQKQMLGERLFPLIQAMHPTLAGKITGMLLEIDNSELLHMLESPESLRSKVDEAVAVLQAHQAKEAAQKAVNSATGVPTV
T5 sequence (Q9P0U3 whole entry, the tested form may be a part): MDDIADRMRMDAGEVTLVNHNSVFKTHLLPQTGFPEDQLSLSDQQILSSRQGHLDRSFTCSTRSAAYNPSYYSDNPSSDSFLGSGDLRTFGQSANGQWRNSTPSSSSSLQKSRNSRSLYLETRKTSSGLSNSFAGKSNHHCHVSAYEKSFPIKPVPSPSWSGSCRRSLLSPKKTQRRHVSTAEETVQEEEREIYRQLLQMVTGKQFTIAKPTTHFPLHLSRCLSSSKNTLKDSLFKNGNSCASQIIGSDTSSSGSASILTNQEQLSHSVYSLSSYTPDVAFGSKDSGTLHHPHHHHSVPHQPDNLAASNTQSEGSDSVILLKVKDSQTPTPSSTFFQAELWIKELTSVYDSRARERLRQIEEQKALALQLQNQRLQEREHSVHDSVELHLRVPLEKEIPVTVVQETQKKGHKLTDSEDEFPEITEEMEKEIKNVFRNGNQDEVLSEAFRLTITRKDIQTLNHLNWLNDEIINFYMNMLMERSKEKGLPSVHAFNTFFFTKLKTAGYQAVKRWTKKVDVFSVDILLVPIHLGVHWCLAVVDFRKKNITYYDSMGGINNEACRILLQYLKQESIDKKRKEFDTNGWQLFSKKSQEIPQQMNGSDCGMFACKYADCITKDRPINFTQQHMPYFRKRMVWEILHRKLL
T4 sequence (Q79MP6 whole entry): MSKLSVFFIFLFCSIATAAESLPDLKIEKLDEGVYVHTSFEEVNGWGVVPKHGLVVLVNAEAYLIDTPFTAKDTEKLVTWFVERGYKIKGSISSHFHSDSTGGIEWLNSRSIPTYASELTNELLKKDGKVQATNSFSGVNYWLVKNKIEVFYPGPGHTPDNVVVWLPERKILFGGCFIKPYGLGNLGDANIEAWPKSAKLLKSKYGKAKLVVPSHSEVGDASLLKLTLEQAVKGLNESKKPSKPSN
Sequence of Beta-lactamase (Salmonella choleraesuis (strain SC-B67), UniProt Q5J463) (Q5J463 whole entry): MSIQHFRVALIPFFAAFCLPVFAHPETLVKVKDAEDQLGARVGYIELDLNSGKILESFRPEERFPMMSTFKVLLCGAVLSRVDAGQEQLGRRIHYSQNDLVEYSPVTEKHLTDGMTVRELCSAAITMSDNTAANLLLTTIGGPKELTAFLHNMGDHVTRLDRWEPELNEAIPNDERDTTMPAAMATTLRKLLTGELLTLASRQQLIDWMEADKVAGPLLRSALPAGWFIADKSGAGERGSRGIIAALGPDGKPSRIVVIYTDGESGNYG
Sequence of Cytochrome P450 2C19 (P33261 whole entry): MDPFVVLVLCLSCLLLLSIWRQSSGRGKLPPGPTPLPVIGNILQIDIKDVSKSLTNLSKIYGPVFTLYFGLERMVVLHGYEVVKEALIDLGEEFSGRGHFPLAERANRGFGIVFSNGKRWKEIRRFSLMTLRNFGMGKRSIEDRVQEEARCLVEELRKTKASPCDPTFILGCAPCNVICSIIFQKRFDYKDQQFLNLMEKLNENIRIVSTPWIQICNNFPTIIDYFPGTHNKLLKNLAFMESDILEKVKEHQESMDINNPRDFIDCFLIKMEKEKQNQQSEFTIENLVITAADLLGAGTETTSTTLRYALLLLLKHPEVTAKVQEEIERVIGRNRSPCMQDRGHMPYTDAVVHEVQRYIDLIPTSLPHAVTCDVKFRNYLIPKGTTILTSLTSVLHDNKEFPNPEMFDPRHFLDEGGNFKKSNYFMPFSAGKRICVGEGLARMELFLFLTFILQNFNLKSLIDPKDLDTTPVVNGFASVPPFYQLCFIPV
Sequence of Cytochrome P450 2D6 (P10635 whole entry): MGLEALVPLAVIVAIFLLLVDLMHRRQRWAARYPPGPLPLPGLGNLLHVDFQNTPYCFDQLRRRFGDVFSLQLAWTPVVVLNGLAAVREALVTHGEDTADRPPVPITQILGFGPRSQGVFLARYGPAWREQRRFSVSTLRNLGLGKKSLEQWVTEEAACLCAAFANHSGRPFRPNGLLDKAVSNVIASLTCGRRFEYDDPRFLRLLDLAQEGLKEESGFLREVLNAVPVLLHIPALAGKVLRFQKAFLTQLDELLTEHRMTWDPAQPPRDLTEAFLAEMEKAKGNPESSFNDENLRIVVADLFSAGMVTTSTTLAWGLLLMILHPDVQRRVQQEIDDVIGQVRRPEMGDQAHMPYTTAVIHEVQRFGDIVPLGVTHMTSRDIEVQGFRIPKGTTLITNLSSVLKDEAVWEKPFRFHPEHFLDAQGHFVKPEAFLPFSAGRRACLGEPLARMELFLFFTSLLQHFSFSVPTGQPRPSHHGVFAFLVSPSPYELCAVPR
Sequence of DNA repair protein RAD52 homolog (P43351 whole entry): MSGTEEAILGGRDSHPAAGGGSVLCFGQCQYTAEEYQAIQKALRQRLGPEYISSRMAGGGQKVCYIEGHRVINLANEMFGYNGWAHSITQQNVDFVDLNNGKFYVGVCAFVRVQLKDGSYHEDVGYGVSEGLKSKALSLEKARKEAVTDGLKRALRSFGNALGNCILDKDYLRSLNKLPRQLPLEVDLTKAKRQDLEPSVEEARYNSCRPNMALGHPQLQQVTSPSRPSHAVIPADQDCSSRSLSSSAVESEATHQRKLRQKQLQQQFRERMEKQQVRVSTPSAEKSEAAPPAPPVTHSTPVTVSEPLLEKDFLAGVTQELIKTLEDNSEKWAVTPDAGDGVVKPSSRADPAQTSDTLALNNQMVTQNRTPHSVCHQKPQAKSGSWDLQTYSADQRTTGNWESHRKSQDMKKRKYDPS
Sequence of Albumin (P02769 whole entry): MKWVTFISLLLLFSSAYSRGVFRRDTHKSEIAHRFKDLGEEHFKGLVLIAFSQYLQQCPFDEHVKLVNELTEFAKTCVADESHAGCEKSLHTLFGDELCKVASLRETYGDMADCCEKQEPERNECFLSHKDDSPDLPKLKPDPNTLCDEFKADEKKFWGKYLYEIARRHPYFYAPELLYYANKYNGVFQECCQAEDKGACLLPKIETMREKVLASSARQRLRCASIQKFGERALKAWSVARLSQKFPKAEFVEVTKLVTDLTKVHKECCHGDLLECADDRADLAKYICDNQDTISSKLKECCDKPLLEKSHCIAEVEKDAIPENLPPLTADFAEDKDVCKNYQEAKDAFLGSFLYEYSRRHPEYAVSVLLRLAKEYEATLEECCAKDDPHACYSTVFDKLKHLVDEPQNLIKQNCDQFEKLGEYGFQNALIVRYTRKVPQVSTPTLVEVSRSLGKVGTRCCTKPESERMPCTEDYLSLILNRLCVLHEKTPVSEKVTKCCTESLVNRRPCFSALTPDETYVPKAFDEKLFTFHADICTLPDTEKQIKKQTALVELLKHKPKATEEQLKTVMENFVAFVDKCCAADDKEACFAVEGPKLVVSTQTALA
Sequence of Beta Lactamase (Q932Y6 whole entry): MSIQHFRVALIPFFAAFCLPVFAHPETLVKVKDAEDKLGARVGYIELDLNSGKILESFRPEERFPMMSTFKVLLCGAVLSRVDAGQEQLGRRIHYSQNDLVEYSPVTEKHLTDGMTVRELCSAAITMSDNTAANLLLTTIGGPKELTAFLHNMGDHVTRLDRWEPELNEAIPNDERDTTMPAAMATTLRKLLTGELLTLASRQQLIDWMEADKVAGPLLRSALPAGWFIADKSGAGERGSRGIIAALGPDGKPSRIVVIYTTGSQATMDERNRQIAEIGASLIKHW
Sequence of Induced myeloid leukemia cell differentiation protein Mcl-1 (Q07820 whole entry): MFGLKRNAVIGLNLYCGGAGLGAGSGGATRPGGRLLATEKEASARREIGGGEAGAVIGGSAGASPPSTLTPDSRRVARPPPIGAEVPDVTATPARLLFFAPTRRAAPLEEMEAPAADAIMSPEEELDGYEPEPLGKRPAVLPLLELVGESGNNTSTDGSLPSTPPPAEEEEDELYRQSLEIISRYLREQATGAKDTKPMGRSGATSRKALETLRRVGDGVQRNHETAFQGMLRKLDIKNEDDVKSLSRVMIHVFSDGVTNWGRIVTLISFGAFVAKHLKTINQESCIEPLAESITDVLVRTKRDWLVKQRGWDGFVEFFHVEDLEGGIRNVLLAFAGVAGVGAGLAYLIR
Sequence of Paired box protein Pax-8 (Q06710 whole entry): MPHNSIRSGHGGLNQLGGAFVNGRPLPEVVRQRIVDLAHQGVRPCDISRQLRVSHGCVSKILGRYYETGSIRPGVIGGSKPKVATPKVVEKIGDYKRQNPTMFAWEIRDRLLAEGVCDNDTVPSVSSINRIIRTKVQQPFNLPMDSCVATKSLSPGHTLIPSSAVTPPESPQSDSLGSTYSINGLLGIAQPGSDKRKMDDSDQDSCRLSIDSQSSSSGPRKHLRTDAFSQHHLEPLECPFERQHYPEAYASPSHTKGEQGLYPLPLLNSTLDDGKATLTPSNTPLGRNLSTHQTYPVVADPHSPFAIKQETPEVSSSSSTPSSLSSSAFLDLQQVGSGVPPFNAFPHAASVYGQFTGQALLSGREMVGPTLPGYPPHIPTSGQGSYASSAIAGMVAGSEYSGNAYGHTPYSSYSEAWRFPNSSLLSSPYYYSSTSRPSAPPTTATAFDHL

Structure (SMILES): COc1ccccc1N(C(C)=O)C1=C(Cl)C(=O)c2ccccc2C1=O
- IC50 [1]: 5.37 µM (active)
- AC50 [2]: 5.98 µM (active)
- IC50 [3]: > 66 µM (inactive)
- CC50 [4]: 22.6 µM (active)
- IC50 [5]: 1.03 µM (active)
- IC50 [6]: > 66 µM (inactive)
- AC50 [7]: 27.8 µM (active)
- IC50 [8]: 9.2 µM (active)
- AC50 [9]: 3.59 µM (active)
- IC50 [10]: > 122 µM (inactive)

Structure (SMILES): Cc1cc(C)c2c(N)c3ccccc3nc2n1
- EC50 [11]: 8.34 µM (active)
- EC50 [12]: 32.3 µM (active)
- EC50 [13]: > 120 µM (not active)
- EC50 [14]: 3.6 µM (active)
- EC50 [15]: > 350 µM (not active)
- AC50 [16]: 20 µM (inconclusive)
- AC50 [17]: 41.4 µM (active)
- AC50 [18]: 5.62 µM (inconclusive)
- AC50 [19]: 5.7 µM (active)

Structure (SMILES): CNc1ccc2ncc(-c3ccc(OC)c(OC)c3)n2n1
- IC50 [20]: 1.69 µM (active)

Structure (SMILES): Cn1c(SCC(=O)NNC(=O)c2ccccc2O)nnc1-c1ccccc1
- IC50 [21]: > 94.2 µM (inactive)

Structure (SMILES): CN1CCN(CCCNC(=O)c2ccc(/C=C3\Oc4ccccc4N(Cc4ccccc4F)C3=O)cc2)CC1
- AC50 [22]: 17 µM (active)
- IC50 [23]: > 20 µM (inactive)
- AC50 [24]: 8.16 µM (active)

Structure (SMILES): O=C(CSc1nnc(NC(=O)C2CCCCC2)s1)NCc1ccco1
- IC50 [25]: > 59.6 µM (inactive)
- IC50 [26]: > 59.6 µM (inactive)
- IC50 [27]: > 59.6 µM (inactive)

Structure (SMILES): CCCc1cc(=O)oc2c(C)c(OCC(=O)NCCN3CCOCC3)ccc12
- IC50 [28]: 35.9 µM (inactive)
- IC50 [29]: 35.9 µM (inactive)
- IC50 [30]: 12.4 µM (inactive)

Structure (SMILES): O=C(CCC(=O)N1CCOCC1)NCCc1ccc(F)cc1
- EC50 [31]: > 29.9 µM (inactive)
- IC50 [32]: > 29.9 µM (inactive)

Structure (SMILES): Cc1ccc(C(=O)NNc2c3ccccc3nc3ccccc23)cc1
- IC50 [33]: > 80 µM (inactive)
- IC50 [34]: 5.38 µM (active)

Structure (SMILES): COC(=O)C1=C(C)N(Cc2ccccc2)C(=S)N[C@H]1c1ccc(Br)cc1
- AC50 [35]: 42.2 µM (active)
- AC50 [36]: 50.4 µM (active) and 14.1 µM (active)

Structure (SMILES): O=C(C[C@H]1C[C@H]2c3cc(NS(=O)(=O)c4ccc(F)cc4)ccc3O[C@H]2[C@H](CO)O1)NCc1ccc(Oc2ccccc2)cc1
- AbsAC35 [37]: 70.4 µM
- AbsAC35 [38]: 45.43 µM

Structure (SMILES): Oc1nc2cc3ccccc3cc2nc1-c1nnnn1C1CCCC1
- IC50 [39]: 1.05 µM (active)
- IC50 [40]: 2.21 µM (active)

Structure (SMILES): CC(C)(C)[S@@+]([O-])N1Cc2cc(C(=O)NCc3ccccn3)nc(-c3cccc(-c4ccccc4F)c3)c2[C@H]1CCO
- AbsAC35 [41]: 49.61 µM
